Experimental data published in patent US9963506B2, “Human-mouse chimeric anti-CD147 antibody with non-fucosylated glycosylation” (Fourth Military Medical University, priority 2015, dated 2018).

Columns and labels:
[1] = target: T1, CD147^+ A549 cells (Homo sapiens, UniProt P35613); test: Antigen-binding activity by flow cytometry
T1 construct: endogenous in cells; host or cells: A549 (human lung cancer cell line)
T1 sequence (P35613 22-269 isoform P35613-2 limits assumed): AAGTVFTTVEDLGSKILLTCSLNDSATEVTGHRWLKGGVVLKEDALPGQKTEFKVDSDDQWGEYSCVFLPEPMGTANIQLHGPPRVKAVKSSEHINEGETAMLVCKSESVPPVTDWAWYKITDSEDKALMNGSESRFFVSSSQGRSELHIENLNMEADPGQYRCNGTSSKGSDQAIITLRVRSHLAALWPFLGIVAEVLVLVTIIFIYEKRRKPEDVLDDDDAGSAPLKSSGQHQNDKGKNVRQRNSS
Procedure: The antibody concentration is 0.001 μg/mL, 0.01 μg/mL, 0.1 μg/mL, 1 μg/ml and 10 μg/mL, respectively.
A549 cells (10^6 cells) were incubated with the Metuzumab (HcHAb18) and cHAb18 antibody, respectively, in PBS with 0.1% BSA at 4° C. for 1 h. After three washes in PBS with 0.1% BSA, cells were incubated with the FITC-conjugated Rabbit anti-Human IgG Fc Secondary Antibody (Pierce) at 4° C. in the dark for 45 min. Cells were then washed three times and suspended in PBS for analysis using a FACS Calibur flow cytometer (BD, New Jersey, U.S.). Relative antigen expression is reported as median fluorescence intensity (MFI).

[2] = system: A549 cells; test: Transwell invasion assay; type: cell-based, human; settings: 24 hours
Procedure: (§1) For invasion assay, NCI-H520 or A549 cells were serum-starved for 12 hours in DMEM containing 0.1% FBS. Serum-starved cells were trypsinized and re-suspended in DMEM containing 0.1% FBS and Metuzumab solution at 0.1 μg/ml, 1 μg/ml and 10 μg/ml, respectively. 5×10^4 cells were added to the upper chamber of each well (6.5 mm in diameter, 8-μm pore size; Corning, N.Y.) coated with […] Matrigel (BD Bioscience). Medium containing 10% FBS was placed in the lower compartment of the chamber. After 24 hours at 37° C., cells on the upper membrane surface were removed by careful wiping with a cotton swab, and the filters were fixed by treatment with 95% ethanol for 30 minutes and stained with 0.2% crystal violet solution for 30 minutes. Invasive cells adhering to the undersurface of the filter were then counted (five high-power fields/chamber) using a CX71 microscope (Olympus).

[3] = system: NCI-H520 cells; test: Transwell invasion assay; type: cell-based, human; settings: 24 hours
Procedure: as §1

[4] = system: NCI-H520 cells; test: Subcutaneous xenograft model, tumor growth inhibition; type: in vivo, SCID mice; settings: tail vein
Procedure: Mice injected with NCI-H520 cells subcutaneously in the right dorsal flank were treated by intravenous saline; 2 mg/kg Cisplatin and 100 mg/kg Gemcitabine; Metuzumab infusion at 2 mg/kg, 10 mg/kg and 30 mg/kg; combination of 10 mg/kg Metuzumab with 2 mg/kg Cisplatin and 100 mg/kg Gemcitabine; wherein the antibodies were injected twice weekly for 3 week consecutively, while the chemotherapeutic agents were injected once a week for 3 weeks consecutively. The tumors were measured twice a week.
Animals were housed in specific pathogen-free (SPF) condition. For the localized subcutaneous xenograft mouse model, 1×10^6 NCI-H520 or A549 cells, suspended in Hank's balanced salt solution were implanted in the right dorsal flank of male SCID mice (6-8 week old). When tumors reached a mean volume of 100 mm^3, mice were randomized into treatment cohorts (n=10 mice per group). Mice were grouped for different treatments, including Metuzumab treatment groups treated with 2 mg/kg, 10 mg/kg and 30 mg/kg Metuzumab; chemistry treatment group treated with 2 mg/kg Cisplatin and 100 mg/kg Gemcitabine; combination treatment group treated with 10 mg/kg Metuzumab with 2 mg/kg Cisplatin and 100 mg/kg Gemcitabine, or saline (control group) via tail vein, respectively. Antibody injections were administered twice weekly, for 3 weeks consecutively; chemotherapeutic agents were administered once a week, for 3 weeks consecutively. Tumor size was measured twice each week for the duration of the study using calipers. Tumor volumes were determined using the following formula: […]. Antitumor activity was assessed by calculating inhibition ratio of tumor volumes (IRTV) based on medians by using following formula: [1−average (Ttreatment (day x)−Ttreatment (day 0))/average (Tcontrol (day x)−Tcontrol (day 0))]×100%.

CD147-binding ability, Metuzumab compared with cHAb18 ([1]; FIG. 4): similar | Binding to CD147^+ A549 cells ([1]; FIG. 4, 0.001-10 μg/mL): bound
Substance: Metuzumab: human-mouse chimeric anti-CD147 IgG1, heavy chain SEQ ID NO: 4, light chain SEQ ID NO: 3, Mannose-5 glycoform lacking fucose and xylose
invasiveness repressed compared to control groups ([2]; A549, 0.1 μg/ml): 53.5% | invasiveness repressed compared to control groups ([2]; A549, 1 μg/ml): 61.5% | invasiveness repressed compared to control groups ([2]; A549, 10 μg/ml): 74.6% | invasiveness repressed compared to control groups ([3]; NCI-H520, 0.1 μg/ml): 30.0% | invasiveness repressed compared to control groups ([3]; NCI-H520, 1 μg/ml): 48.0% | invasiveness repressed compared to control groups ([3]; NCI-H520, 10 μg/ml): 66.2% | inhibition ratio of tumor volumes (IRTV) ([4]; 2 mg/kg twice weekly for 3 weeks): 49.53% | inhibition ratio of tumor volumes (IRTV) ([4]; 10 mg/kg twice weekly for 3 weeks): 53.34% | inhibition ratio of tumor volumes (IRTV) ([4]; 30 mg/kg twice weekly for 3 weeks): 57.75%
